The assay relates to M1 macrophages and M2 macrophages differentiated from mouse bone marrow cells. Briefly: Subtype identification by staining and flow cytometry of M1 and M2 macrophages differentiated from mouse bone marrow cells. In kind it is cell-based, Balb/c mouse. As to conditions: for subtype more strongly stained: two compounds used in combination, each 1 μM. The protocol: The culture of subtypes was performed according to a protocol described in NPL 7. Specifically, bone marrow cells collected from the femur of a Balb/c mouse of 8 to 10 weeks old were dispersed to a concentration of 1×10^6/mL in an IMDM containing 20% FBS and 1% P/S, and 1×10^7 cells were seeded in a 100 mm dish. After further adding an M-CSF (manufactured by Pepro Tech) thereto to a concentration of 50 ng/mL, the cells were incubated for 3 to 4 days in the presence of 5% CO2 at 37° C., so as to differentiate macrophage precursor cells to macrophages. After exchanging the medium, the M-CSF was added to a concentration of 50 ng/mL, and the incubation was performed for further 3 to 4 days in the presence of 5% CO2 at 37° C., and then, the resulting cells were differentiated to macrophage. By adding 200 ng of interferon-γ and 1 μg of […] (both manufactured by Pepro Tech) to the IMDM containing 5% FBS and 1% P/S, the cells were differentiated to the subtype M1. Besides, by adding 100 ng of IL-4 to the IMDM containing 5% FBS and 1% P/S, the cells were differentiated to the subtype M2. After performing the incubation for further 3 days in the presence of 5% CO2 at 37° C., the resultant was rinsed with PBS, and PBS containing 0.25% trypsin and 1 mM EDTA (ethylenediaminetetraacetic acid) was used for collecting, from the dish, the macrophages having been differentiated to the subtypes M1 and M2.
Thereafter, the tube was centrifuged at 180 G for 10 minutes to remove the supernatant, a dye for identifying dead cells (aqua fluorescent reactive dye, manufactured by Invitrogen; which is hereinafter sometimes abbreviated as aqua) was added thereto, and the resultant was incubated at 4° C. for 10 minutes. Subsequently, the tube was centrifuged at 180 G for 10 minutes to remove the supernatant, cells were suspended in a FACS buffer to be analyzed by using FACSCanto (trademark) II flow cytometry apparatus manufactured by BD.
The analysis was performed on a cell population showing a low signal for the aqua, so as to analyze a cell population from which dead cells were eliminated. […] A histogram was prepared by plotting fluorescence intensity obtained in the FITC channel on the abscissa and plotting the number of cells at each fluorescence intensity on the ordinate, which is shown in FIG. 2.
Histograms were prepared by plotting fluorescence intensities obtained in the respective channels on the abscissa and plotting the numbers of cells at each fluorescence intensity on the ordinate. A difference between a fluorescence intensity (FM1) at a peak top of the histogram of the M1 macrophage and a fluorescence intensity (FM2) at a peak top of the histogram of the M2 macrophage is divided by a sum of a peak width (WM1) of the histogram of the M1 macrophage and a peak width (WM2) of the histogram of the M2 macrophage, so as to obtain a resolution R, which was used as an index of the identification ability for a subtype (see the following expression (1)). Resolution R=|FM1−FM2|/(WM1+WM2) Expression (1)

Where [1] appears, read: M1 vs M2 macrophages from mouse bone marrow cells, general formula (11) dyes (Table 9).
The mark [2] stands for this setting: class based on resolution R, general formula (11) dyes (Table 9).
Where [3] appears, read: mouse bone marrow-derived M1 macrophages, channel listed per compound, general formula (11) dyes (Table 9).
The mark [4] stands for this setting: mouse bone marrow-derived M2 macrophages, channel listed per compound, general formula (11) dyes (Table 9).
Setting [5] is: R=|FM1−FM2|/(WM1+WM2), compound 1 μM.
Where [6] appears, read: fluorescence intensity at peak top of histogram, compound 1 μM, 37° C., 30 minutes.
The mark [7] stands for this setting: M1 vs M2 macrophages from mouse bone marrow cells, general formula (10) dyes (Table 8).
[8] abbreviates: class based on resolution R, general formula (10) dyes (Table 8).
Setting [9] is: mouse bone marrow-derived M1 macrophages, channel listed per compound, general formula (10) dyes (Table 8).
The mark [10] stands for this setting: mouse bone marrow-derived M2 macrophages, channel listed per compound, general formula (10) dyes (Table 8).

Each structure is given as a SMILES string.

Consider `Cc1cc(C)n2c1C=C1C=CC(CCC(=O)NN)=[N+]1[B-]2(F)F` [(166)], for which, under setting [1], the “Resolution ratio R” value is listed as 0.722. Also, under setting [2], the “Evaluation of macrophage subtype identification” value (“Evaluation” for short) is recorded as “A (The compound is very good in the subtype identification (namely, the resolution R is 0.5 or more))”. Moreover, the “Peak position of M1 macrophage” value under setting [3] was 127. Also, under setting [4], the “Peak position of M2 macrophage” value is 56.3.
In the case of `CCN1c2ccc(/C=C/c3sc4ccccc4[n+]3CC(=O)O)cc2C2CCCC21` (centres unmarked) [(65)], the “Resolution ratio R” value under setting [5] came to 0.236. Under setting [6], the “Peak position of M1 macrophage” value is on record as 2.96 and the “Peak position of M2 macrophage” value turned out to be 4.67. Also, for the setting “rated from resolution R”, the “Evaluation” value is “B (the compound is good in the subtype identification (namely, the resolution R is 0.15 or more and less than 0.5))”.
Turning to `N#C/C(=C\C=C\c1ccc2c(c1)C1CCCC1N2c1ccc(C=C(c2ccccc2)c2ccccc2)cc1)C(=O)O` (centres unmarked) [(74)], under setting [5], the “Resolution ratio R” value was determined as 0.538. Also, under setting [6], the “Peak position of M1 macrophage” value worked out at 2.52 and the “Peak position of M2 macrophage” value is given as 1.25. Where the note is “rated from resolution R”, the “Evaluation” value is recorded as “A (The compound is very good in the subtype identification (namely, the resolution R is 0.5 or more))”.
As for `CCN(CC)c1ccc2cc(-c3nc4ncccc4o3)c(=O)oc2c1` [compound (116)], the “subtype more strongly stained” value is recorded as “more strongly stain the M2 macrophages than the M1 macrophages”. For the same molecule, under setting [7], the “Resolution ratio R” value is listed as 0.772. Further, the “Evaluation” value under setting [8] is “A (The compound is very good in the subtype identification (namely, the resolution R is 0.5 or more))”. Also, the “Peak position of M1 macrophage” value under setting [9] is on record as 4.91. Besides, under setting [10], the “Peak position of M2 macrophage” value is on record as 12.1.
Take `CCC1=C(C)C2=C(C)c3c(C)c(CC)c(C)n3[B-](C#C[Si](C)(C)C)(C#C[Si](C)(C)C)[N+]2=C1C` [compound (154)]: under setting [1], the “Resolution ratio R” value was 0.160. Besides, under setting [2], the “Evaluation” value was “B (the compound is good in the subtype identification (namely, the resolution R is 0.15 or more and less than 0.5))”. Besides, the “Peak position of M1 macrophage” value under setting [3] came to 1.25. For the same molecule, under setting [4], the “Peak position of M2 macrophage” value is recorded as 1.63.
As for `O=C(O)Cn1c(=O)/c(=C\c2ccc3c(c2)C2CCCC2N3Cc2ccccc2)s/c1=C1/SC(=S)N(Cc2ccccc2)C1=O` (centres unmarked) [(53)], the “Resolution ratio R” value under setting [5] is 0.650. Also, under setting [6], the “Peak position of M1 macrophage” value is recorded as 128 and the “Peak position of M2 macrophage” value came to 190. The “Evaluation” value (rated from resolution R) was “A (The compound is very good in the subtype identification (namely, the resolution R is 0.5 or more))”.
In the case of `C=CCN1C(=O)/C(=c2\s/c(=C/c3ccc4c(c3)C3CCCC3N4Cc3ccccc3)c(=O)n2CC(=O)OCC)SC1=S` (centres unmarked) [(52)], the “Resolution ratio R” value under setting [5] was 0.756. Also, under setting [6], the “Peak position of M1 macrophage” value worked out at 3.90 and the “Peak position of M2 macrophage” value is given as 1.68. In addition, the “Evaluation” value (rated from resolution R) is “A (The compound is very good in the subtype identification (namely, the resolution R is 0.5 or more))”.
As to `O=C(O)CN1C(=O)/C(=C\C=C\c2ccc3c(c2)C2CCCC2N3c2ccccc2)SC1=S` (centres unmarked) [(85)], the “Resolution ratio R” value under setting [5] is given as 0.179. In addition, under setting [6], the “Peak position of M1 macrophage” value is on record as 225 and the “Peak position of M2 macrophage” value was determined as 285. The “Evaluation” value (rated from resolution R) was “B (the compound is good in the subtype identification (namely, the resolution R is 0.15 or more and less than 0.5))”.
On to `CC1(C)CCN2CCC(C)(C)c3c2c1cc1cc(-c2nc4ccccc4s2)c(=O)oc31` [(138)], for which the “Resolution ratio R” value under setting [7] is 0.312. Also, the “Evaluation” value under setting [8] is “B (the compound is good in the subtype identification (namely, the resolution R is 0.15 or more and less than 0.5))”. In addition, the “Peak position of M1 macrophage” value under setting [9] is 20.6. Further, the “Peak position of M2 macrophage” value under setting [10] is recorded as 28.0.
Take `CC1=C(S(=O)(=O)O)C(C)=[N+]2C1=C(C)c1c(C)c(S(=O)(=O)O)c(C)n1[B-]2(F)F` [(165)]: the “Resolution ratio R” value under setting [1] is given as 0.183. Moreover, under setting [2], the “Evaluation” value was “B (the compound is good in the subtype identification (namely, the resolution R is 0.15 or more and less than 0.5))”. The “Peak position of M1 macrophage” value under setting [3] is recorded as 1.25. The “Peak position of M2 macrophage” value under setting [4] was 2.00.
`CCN(CC)c1ccc2cc(-c3nc4ccc(OC)cc4o3)c(=O)oc2c1` [(132)]: under setting [7], the “Resolution ratio R” value is 0.624. For the same molecule, under setting [8], the “Evaluation” value is “A (The compound is very good in the subtype identification (namely, the resolution R is 0.5 or more))”. Besides, the “Peak position of M1 macrophage” value under setting [9] is listed as 30.3. Under setting [10], the “Peak position of M2 macrophage” value was found to be 53.8.
Take `COC(=O)COc1ccc(/C=C/C2=[N+]3C(=Cc4ccc(-c5cccs5)n4[B-]3(F)F)C=C2)cc1` [compound (161)]: the “subtype more strongly stained” value is given as “the M1 macrophages show higher fluorescence intensity in the APC channel than the M2 macrophages”. The “Resolution ratio R” value under setting [1] stood at 0.582. Besides, the “Evaluation” value under setting [2] was “A (The compound is very good in the subtype identification (namely, the resolution R is 0.5 or more))”. Also, the “Peak position of M1 macrophage” value under setting [3] is on record as 38.4. Further, under setting [4], the “Peak position of M2 macrophage” value is listed as 9.02.
Turning to `CN1/C(=C\C=C\C2=[N+](C)c3ccccc3C2(C)C)C(C)(C)c2ccccc21` [(95)], the “Resolution ratio R” value (M1 vs M2 macrophages from mouse bone marrow cells, general formula (6) dyes (Table 7)) was 0.421. Besides, the “Evaluation” value (class based on resolution R, general formula (6) dyes (Table 7)) is “B (the compound is good in the subtype identification (namely, the resolution R is 0.15 or more and less than 0.5))”. The “Peak position of M1 macrophage” value (mouse bone marrow-derived M1 macrophages, channel listed per compound, general formula (6) dyes (Table 7)) turned out to be 71.57. Moreover, where the note is “mouse bone marrow-derived M2 macrophages, channel listed per compound, general formula (6) dyes (Table 7)”, the “Peak position of M2 macrophage” value is reported as 133.45.
Turning to `CCN1C(=O)/C(=c2\s/c(=C/c3ccc4c(c3)CC(C)N4CC)c(=O)n2CC(=O)O)SC1=S` (centres unmarked) [(57)], the “Resolution ratio R” value under setting [5] stood at 0.167. Under setting [6], the “Peak position of M1 macrophage” value was 4.20 and the “Peak position of M2 macrophage” value came out at 3.59. Besides, where the note is “rated from resolution R”, the “Evaluation” value was “B (the compound is good in the subtype identification (namely, the resolution R is 0.15 or more and less than 0.5))”.
With `O=C(O)CCN1C(=O)/C(=C\c2ccc3c(c2)C2CCCC2N3c2ccccc2)SC1=S` (centres unmarked) [(13)], the “Resolution ratio R” value under setting [5] is 0.714. Also, under setting [6], the “Peak position of M1 macrophage” value was found to be 7.74 and the “Peak position of M2 macrophage” value turned out to be 20.4. Under “rated from resolution R”, the “Evaluation” value is “A (The compound is very good in the subtype identification (namely, the resolution R is 0.5 or more))”.
`CCN1C(=O)S/C(=c2/s/c(=C/c3ccc4c(c3)C3CCCC3N4Cc3ccccc3)c(=O)n2CC(=O)O)C1=O` (centres unmarked) [(43)]: under setting [5], the “Resolution ratio R” value is on record as 0.411. Also, under setting [6], the “Peak position of M1 macrophage” value was determined as 7.14 and the “Peak position of M2 macrophage” value is recorded as 13.0. Moreover, the “Evaluation” value (rated from resolution R) was “B (the compound is good in the subtype identification (namely, the resolution R is 0.15 or more and less than 0.5))”.
For `CCCN1c2ccc(/C=C3/SC(=S)N(CCC(=O)O)C3=O)cc2C2CCCC21` (centres unmarked) [(9)], the “Resolution ratio R” value under setting [5] amounted to 0.828. Moreover, under setting [6], the “Peak position of M1 macrophage” value worked out at 2.63 and the “Peak position of M2 macrophage” value is recorded as 6.69. In addition, the “Evaluation” value (rated from resolution R) is reported as “A (The compound is very good in the subtype identification (namely, the resolution R is 0.5 or more))”.
With `CSc1cccc(N2c3ccc(/C=C4/SC(=S)N(CC(=O)O)C4=O)cc3C3CCCC32)c1` (centres unmarked) [(50)], under setting [5], the “Resolution ratio R” value is on record as 1.025. For the same molecule, under setting [6], the “Peak position of M1 macrophage” value is 3.24 and the “Peak position of M2 macrophage” value turned out to be 0.99. The “Evaluation” value (rated from resolution R) is on record as “A (The compound is very good in the subtype identification (namely, the resolution R is 0.5 or more))”.

These data come from patent US10041937B2, “Macrophage identification agent, and identification method, sorting method, evaluation method, screening method and kit using the macrophage identifier agent” (CANON KABUSHIKI KAISHA, priority 2013, dated 2018).
